Legend:
PPARγ/RXR = target: T1, PPARγ/RXR (Homo sapiens, UniProt P37231); assay: CD36-luc luciferase reporter assay, PPARγ/RXR co-transfected into CV-1 cells; format: cell-based; conditions: 24 h
T1 construct: expressed in transfected cells; host or cells: CV-1
T1 sequence (P37231 29-505 limits assumed): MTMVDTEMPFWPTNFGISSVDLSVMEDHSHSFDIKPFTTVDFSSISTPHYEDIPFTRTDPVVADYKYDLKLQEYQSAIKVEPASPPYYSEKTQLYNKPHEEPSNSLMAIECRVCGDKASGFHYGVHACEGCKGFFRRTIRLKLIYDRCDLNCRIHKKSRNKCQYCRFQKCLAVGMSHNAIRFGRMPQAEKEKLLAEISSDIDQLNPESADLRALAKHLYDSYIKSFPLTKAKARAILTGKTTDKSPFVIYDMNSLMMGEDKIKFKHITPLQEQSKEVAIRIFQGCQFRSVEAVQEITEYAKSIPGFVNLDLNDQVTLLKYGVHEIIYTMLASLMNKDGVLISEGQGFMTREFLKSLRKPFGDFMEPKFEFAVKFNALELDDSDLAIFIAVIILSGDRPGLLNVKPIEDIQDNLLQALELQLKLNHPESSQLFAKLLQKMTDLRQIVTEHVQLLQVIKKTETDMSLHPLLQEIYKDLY
T1 sequence (P19793 1-462 partner): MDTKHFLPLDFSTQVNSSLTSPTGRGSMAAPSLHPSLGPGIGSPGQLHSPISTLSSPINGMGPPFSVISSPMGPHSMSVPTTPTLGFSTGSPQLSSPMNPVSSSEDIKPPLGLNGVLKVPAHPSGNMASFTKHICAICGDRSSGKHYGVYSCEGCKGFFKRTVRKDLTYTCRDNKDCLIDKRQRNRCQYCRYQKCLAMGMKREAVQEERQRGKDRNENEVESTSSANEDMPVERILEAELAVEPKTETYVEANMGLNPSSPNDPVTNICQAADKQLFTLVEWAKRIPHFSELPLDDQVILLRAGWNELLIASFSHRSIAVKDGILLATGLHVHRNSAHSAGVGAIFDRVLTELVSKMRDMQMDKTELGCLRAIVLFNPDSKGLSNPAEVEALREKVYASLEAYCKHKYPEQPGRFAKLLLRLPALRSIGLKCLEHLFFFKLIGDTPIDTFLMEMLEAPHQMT

TR4 [1] = target: T2, TR4 (Homo sapiens, UniProt P49116); assay: CD36-luc luciferase reporter assay, TR4 co-transfected into CV-1 cells; format: cell-based; set-up: pCMX-TR4 plasmids consist of the full length human TR4 gene subcloned into pCMX vector; expressed in transfected cells; host or cells: CV-1; conditions: 24 h
T2 sequence (P49116 1-615 isoform P49116-2): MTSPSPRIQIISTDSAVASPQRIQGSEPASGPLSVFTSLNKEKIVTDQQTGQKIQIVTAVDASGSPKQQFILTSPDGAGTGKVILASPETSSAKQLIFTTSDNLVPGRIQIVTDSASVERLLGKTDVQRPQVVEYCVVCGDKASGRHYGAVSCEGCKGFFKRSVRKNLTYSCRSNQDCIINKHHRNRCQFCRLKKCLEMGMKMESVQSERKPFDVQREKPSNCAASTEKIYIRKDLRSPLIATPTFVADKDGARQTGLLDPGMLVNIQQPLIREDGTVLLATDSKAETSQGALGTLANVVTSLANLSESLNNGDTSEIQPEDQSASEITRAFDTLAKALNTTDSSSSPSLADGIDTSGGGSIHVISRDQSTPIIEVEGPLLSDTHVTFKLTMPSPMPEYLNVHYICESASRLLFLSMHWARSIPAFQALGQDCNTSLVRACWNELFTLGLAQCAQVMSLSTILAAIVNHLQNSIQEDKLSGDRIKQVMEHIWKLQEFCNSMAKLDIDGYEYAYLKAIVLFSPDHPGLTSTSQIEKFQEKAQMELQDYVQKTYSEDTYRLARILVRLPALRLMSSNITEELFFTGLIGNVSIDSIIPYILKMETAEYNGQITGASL
Procedure: After 24 h, cells were harvested for Luciferase activity. The relative luciferase activity was calculated while setting pCMX-TR4 in vehicle control as 1. (FIG. 6B) Protease protective peptide mapping were analyzed in liganded-PPARγ and TR4. […] The reaction was stopped by adding 2×SDS-sample buffer. The protease digestion pattern was resolved by gel electrophoresis in 12.5% (for PPARγ), and 16% (for TR4) SDS-PAGE. […] After 24 h, cells were harvested for Luciferase activity. The relative luciferase activity was calculated while setting pCMX-TR4 in vehicle control as 1.
Mouse macrophage RAW 264.7 cells, obtained from ATCC, were cultured in DMEM medium supplemented with 8% fetal bovine serum and 100 µg/ml penicillin-streptomycin and maintained on the petri-dishes. […] After 24 h, cells were harvested for luciferase assays.

TR4 [2] = target: T2, TR4; assay: Limited proteolysis (protease protective peptide mapping) of [35S]-TR4; format: binding; set-up: pCMX-TR4 plasmids consist of the full length human TR4 gene subcloned into pCMX vector; expressed in transfected cells; host or cells: H1299; conditions: incubated 15 min, trypsin 0.25 and 2.5 g/ml 10 min; compared to DMSO control
Procedure: (FIG. 6A) PUFAs metabolites induced PPAR- and TR4-mediated CD36 activity. […] After 24 h, cells were harvested for Luciferase activity. The relative luciferase activity was calculated while setting pCMX-TR4 in vehicle control as 1. (FIG. 6B) Protease protective peptide mapping were analyzed in liganded-PPARγ and TR4. […] The reaction was stopped by adding 2×SDS-sample buffer. The protease digestion pattern was resolved by gel electrophoresis in 12.5% (for PPARγ), and 16% (for TR4) SDS-PAGE. […] After 24 h, cells were harvested for Luciferase activity. The relative luciferase activity was calculated while setting pCMX-TR4 in vehicle control as 1.

[3] = 1 and 20 µM in DMSO, compared with AA and EPA
[4] = 1, 10, 50, 100 and 250 µM in BSA

Compound | PPAR/RXR-mediated CD36 expression (CD36-luc luciferase activity) (PPARγ/RXR; [3]) | TR4-mediated CD36 expression (CD36-luc luciferase activity) (TR4 [1]; [3]) | Protease digestion pattern of ligand-bound TR4 (TR4 [2]) | PPAR/RXR-mediated CD36 expression (CD36-luc luciferase activity) (PPARγ/RXR; [4]) | TR4-mediated CD36 expression (CD36-luc luciferase activity) (TR4 [1]; [4])
CCCCCC(O)/C=C/C=C\CCCCCCCC(=O)O (centres unmarked) [13-HODE] | much better induction | much better induction | several changed proteolysis resisting fragments | – | –
CCCCC[C@H](O)/C=C/C=C\C/C=C\C/C=C\CCCC(=O)O [15-HETE] | much better induction | much better induction | several changed proteolysis resisting fragments | – | –
CCCCC/C=C\C/C=C\C/C=C\C/C=C\CCCC(=O)O [AA, arachidonic acid] | – | – | – | mildly induced | mildly induced
